{"source": "patent US20140314697A1", "about": "“Method for Inhibiting Inflammation and Reducing Melanophilin Expression with Glycine Derivatives And the Composition Thereof” (CORUM INC., priority 2013, published 2014)", "key": {"[1]": {"tested_on": "Human IL-6 secretion, Normal Human Epidermal Keratinocytes (NHEK)", "assay": "Human IL-6 production in UVB-irradiated NHEK (ELISA)", "type": "cell-based", "settings": "Table 9, 0.20%, Positive Control 100%; for Human IL-6 Content, Average: 40 mJ/cm^2 UVB; for Human IL-6 Content, Entry 1: passage 2 + 2, 40 mJ/cm^2 UVB; for Human IL-6 Content, Entry 2 / Human IL-6 Content, Entry 3: passage 2 + 3, 40 mJ/cm^2 UVB", "protocol": "(§1) Normal Human Epidermal Keratinocytes (NHEK) (PromoCell No. C-12008);\n(§2) Positive Control: 40 mJ/cm^2 UVB,\n(§3) Negative Control: No UVB irradiation;\n(§4) a. Rinse the confluent NHEK cells with sterile D-PBS then trypsinize all cells and perform cell counting.\n(§5) b. Dilute the cell density to 4˜8E+04/mL and seed 0.5 mL cell liquid (equals to 2˜4E+04 cells) each well in 24 well plate.\n(§6) c. Incubate NHEK cells at 37° C., 5% CO2 until subconfluence.\n(§7) d. Prepared dosing solution of testing material in Complete Medium: 0.4%, 0.2%, 0.1%, 0.05%.\n(§8) e. Rinse the NHEK cells with sterile D-PBS and discard rinse buffer. Add 400 μL of controls and testing materials in different concentrations into NHEK cells in 24 well plates.\n(§9) f. Pre-incubate NHEK cells with testing material at 37° C., 5% CO2 for about 6 hours.\n(§10) g. After pre-incubating for about 6 hours, wash the NHEK cells with sterile D-PBS for twice then add […] sterile D-PBS for UVB irradiation.\n(§11) h. UVB intensity is about 2300 μW/cm^2 and UVB energy is about 40 mJ/cm^2.\n(§12) i. After UVB irradiation, discard sterile D-PBS and wash again. Add 400 μL of the same dosing solution in to each wells.\n(§13) j. Post-incubate at 37° C., 5% CO2 for about 18 hours.\n(§14) k. After post-incubating for 18 hours, collect the supernatant of controls and testing materials.\n(§15) l. Determine the IL-6/IL-8 content of the supernatant by R&D ELISA kit as mentioned previously.\n(§16) Normal Human Epidermal Keratinocytes (NHEK) were treated by the above-mentioned glycine derivatives for evaluating their anti-inflammatory effect on keratinocytes in this example."}, "[2]": {"tested_on": "Human IL-8 secretion, Normal Human Epidermal Keratinocytes (NHEK)", "assay": "Human IL-8 production in UVB-irradiated NHEK (ELISA)", "type": "cell-based", "settings": "Table 10, 0.20%; for Human IL-8 Content, Average: 40 mJ/cm2 UVB; for Human IL-8 Content, Entry 1: passage 2 + 3, 40 mJ/cm2 UVB; for Human IL-8 Content, Entry 2: passage 2 + 4, 40 mJ/cm2 UVB; for Human IL-8 Content, Entry 3: passage 2 + 5, 40 mJ/cm2 UVB; for Human IL-8 Content, Entry 4: passage 2 + 6, 40 mJ/cm2 UVB", "protocol": "as §1, §2, §3, §4, §5, §6, §7, §8, §9, §10, §11, §12, §13, §14, §15, §16"}}, "note": "Square brackets hold non-standard residues; d marks the D form. Peptide text beside a SMILES is read from it. Sar = CNCC(=O)O"}
{"compound": "CC(=O)NCC(=O)NCCCC(=O)O", "note": "[Ac-Gly-GABA, 4-(2-Acetylamino-acetylamino)-butyric acid]", "values": [{"measurement": "Human IL-6 Content, Average", "setting": "[1]", "result": 14, "unit": "%"}, {"measurement": "Human IL-6 Content, Entry 1", "setting": "[1]", "result": 11, "unit": "%"}, {"measurement": "Human IL-6 Content, Entry 2", "setting": "[1]", "result": 25, "unit": "%"}, {"measurement": "Human IL-6 Content, Entry 3", "setting": "[1]", "result": 6, "unit": "%"}, {"measurement": "Human IL-8 Content, Average", "setting": "[2]", "result": 70, "unit": "%"}, {"measurement": "Human IL-8 Content, Entry 1", "setting": "[2]", "result": 59, "unit": "%"}, {"measurement": "Human IL-8 Content, Entry 2", "setting": "[2]", "result": 70, "unit": "%"}, {"measurement": "Human IL-8 Content, Entry 3", "setting": "[2]", "result": 64, "unit": "%"}, {"measurement": "Human IL-8 Content, Entry 4", "setting": "[2]", "result": 87, "unit": "%"}]}
{"compound": "CC(=O)NCC(=O)NCC(=O)O", "note": "[Ac-Gly-Gly, (2-acetylamino-acetylamino)-acetic acid]", "values": [{"measurement": "Human IL-6 Content, Average", "setting": "[1]", "result": 20, "unit": "%"}, {"measurement": "Human IL-6 Content, Entry 1", "setting": "[1]", "result": 12, "unit": "%"}, {"measurement": "Human IL-6 Content, Entry 2", "setting": "[1]", "result": 16, "unit": "%"}, {"measurement": "Human IL-6 Content, Entry 3", "setting": "[1]", "result": 33, "unit": "%"}, {"measurement": "Human IL-8 Content, Average", "setting": "[2]", "result": 59, "unit": "%"}, {"measurement": "Human IL-8 Content, Entry 2", "setting": "[2]", "result": 68, "unit": "%"}, {"measurement": "Human IL-8 Content, Entry 3", "setting": "[2]", "result": 54, "unit": "%"}, {"measurement": "Human IL-8 Content, Entry 4", "setting": "[2]", "result": 53, "unit": "%"}]}
{"compound": "CC(=O)NCC(=O)N(C)CC(=O)O", "note": "[Ac-Gly-Sar, [(2-Acetylamino-acetyl)-methyl-amino]-acetic acid] (Ac-Gly-[Sar]-OH)", "values": [{"measurement": "Human IL-6 Content, Average", "setting": "[1]", "result": 14, "unit": "%"}, {"measurement": "Human IL-6 Content, Entry 1", "setting": "[1]", "result": 14, "unit": "%"}, {"measurement": "Human IL-6 Content, Entry 2", "setting": "[1]", "result": 21, "unit": "%"}, {"measurement": "Human IL-6 Content, Entry 3", "setting": "[1]", "result": 7, "unit": "%"}, {"measurement": "Human IL-8 Content, Average", "setting": "[2]", "result": 76, "unit": "%"}, {"measurement": "Human IL-8 Content, Entry 1", "setting": "[2]", "result": 73, "unit": "%"}, {"measurement": "Human IL-8 Content, Entry 2", "setting": "[2]", "result": 70, "unit": "%"}, {"measurement": "Human IL-8 Content, Entry 3", "setting": "[2]", "result": 74, "unit": "%"}, {"measurement": "Human IL-8 Content, Entry 4", "setting": "[2]", "result": 88, "unit": "%"}]}
